Patent US20040191344A1, “Pharmaceutical composition for prophylaxis or treatment of osteoporosis, and method to prepare the same” (priority 2003, published 2004)

System: rats with ovariectomy-induced osteoporosis
Assay: Ovariectomy-induced osteoporosis model
Assay type: in vivo, rats (strain Sprague-Dawley)
Details: 3 months
Method: In order to determine the efficacy against osteoporosis in rats (strain Sprague-Dawley), two animal test models were constructed to illustrate the outcomes against normal osteoporosis or estrogen-deficiency-induced osteoporosis, respectively.
In the animal test models, retinoic acid-induced osteoporosis model was used as normal osteoporosis model and ovariectomy-induced model was used as the model for osteoporosis induced by estrogen deficiency.
The following experiment was conducted to test the effects of the pharmaceutical composition of the present invention on rats with ovariectomy-induced osteoporosis in terms of bone mineral contents, bone mineral density, biomechanical index and bone histomorphometry as well as illustrate the claimed efficacy of the pharmaceutical composition.
The ovariectomized animal model was constructed as follows. Anesthesia of the rats was conducted by intra-abdominal injection of 20% urethane according to the dosage of 1 g/kg. The rats were then placed face down, incised in both sides of the spinal cord under aseptic condition, and their ovaries were removed to attain an osteoporosis animal model. For Normal Group, a piece of fat was removed on both sides of back spinal cord. After five days, 72 animals were chosen from the living rats and randomly divided into 9 groups of 8 animals. Administrations were given according to the following conditions:
Normal Group (pseudo-operation): CMC-Na solution 10 ml/kg/d
Affected Group: CMC-Na solution 10 ml/kg/d
Positive Group (Nylestriol): batch no. 020701, provided by Shianghai Hualian Pharmaceuticals, 1 mg/kg, once a week
Subgroup I—Extract of Semen Cuscutae and Fructus Cindii/Composite Groups
(Medium Dosage): 200 mg/kg
Subgroup II—Sole Extract of Semen Cuscutae (Unitary Group)
Subgroup III—Low Dosage Plus Calcium-containing Substance 100 mg/kg, 200 mg/kg in Total
Subgroup IV—Unitary Group Plus Calcium-containing Substance in a Ratio of 70/30, 200 mg/kg in Total
The animals were continuously administered for 3 months. The effects of the pharmaceutical composition of the present invention on morphological alteration of the femur of rats were analyzed using a Dual Energy X-Ray Absorptiometry (DEXA) two days before end of the experiment under the anesthesia of ether. The femur and tibia bone were peeled and measured. Those pieces were soaked in 4% glutaraldehyde (0.1M, pH 7.3) for more than 24 hours. Later on, the vector side of the femur was hacksawed with dental diamond saw blades (grindstone). One piece from each animal was removed and cleaned in 10% sodium hypochlorite solvent for 6 hours, followed by ultra sound wash for 15 minutes.
It was then dehydrated by ethanol-gradient, soaked in ethyl ether, air dried, and then treated with ion sputtering coating (IB-3). The BMD was assessed by dual-energy X-ray absorptiometry (DEXA), and the SX-40 X-ray bone densitometer on 20,000 volt. The graphs were taken by CMIAS-98A image analyzer.
The bones were dried at […] in the oven and then weighed to get the dry weight. The dry bones were carbonated and then incinerated in 800° C. muffle furnace for 6 hours. The ashes were weighed and then dissolved in 6N HCl, in order to measure the Ca and P levels.

C#C[C@]1(O)[C@H](O)C[C@H]2[C@@H]3CCc4cc(OC5CCCC5)ccc4[C@H]3CC[C@@]21C [Nylestriol]
Ash Mass Index (1 mg/kg once a week): 0.649 ± 0.024 g/g
EI (1 mg/kg once a week): 28.55 ± 7.03 KN · mm^2
K (spring strength) (1 mg/kg once a week): 248.91 ± 53.04 N/mm
Pb (maximum strength) (1 mg/kg once a week): 97 ± 9.4 N
δb (maximum torsion index) (1 mg/kg once a week): 0.54 ± 0.17 mm
σb (tensile strength) (1 mg/kg once a week): 147.79 ± 13.95 MPa
BMD level, Femur (DEXA, femoral head, 1 mg/kg/w): 0.353 ± 0.030 g/cm^2
BMD level, Lumbar vertebra (DEXA, 1 mg/kg/w): 0.263 ± 0.015 g/cm^2
Ca level (bone ash, 1 mg/kg once a week): 0.254 ± 0.029 g/g
P level (bone ash, 1 mg/kg once a week): 0.130 ± 0.014 g/g
Average Trabecular Width (femur, 1 mg/kg/w): 146.89 ± 22.27 μm
Percentage of Trabecular Area (femur, 1 mg/kg/w): 0.9148 ± 0.0371
